Values quoted from earlier work as cited in PubChem BioAssay AID1259409 (Chemical Carcinogenesis Research Information System (CCRIS), 2018).

System: rodent chemically induced tumor inhibition, incidence and multiplicity
Test: CCRIS tumor inhibitor studies
Details: Carcinogen: 7,12-DIMETHYLBENZ[A]ANTHRACENE, 57-97-6, Dose [Inhibitor]: 0, Route [Inhibitor]: ORAL, Species: FISH, FEMALE, Promoter: NONE USED

O=c1oc2c(O)c(O)cc3c(=O)oc4c(O)c(O)cc1c4c23
tumour outcome (control, treated, inhibition, significance) (1000 PPM IN DIET FOR 17 WK BEGINNING POST CARCINOGEN TREATMENT (STUDY DURATION: 42 WK), Strain/Sex: RAINBOW TROUT/ MALE, Target Tissue: Type of Lesion: SWIM BLADDER: TUMOR, Dose [Carcinogen]: 5.5 PPM IN WATER FOR 1 HR): 15%, 6%, 60%, p<0.05 | tumour outcome (control, treated, inhibition, significance) (1000 PPM IN DIET FOR 17 WK BEGINNING POST CARCINOGEN TREATMENT (STUDY DURATION: 42 WK), Strain/Sex: RAINBOW TROUT/MALE, Target Tissue: Type of Lesion: LIVER: TUMOR, Dose [Carcinogen]: 5.5 PPM IN WATER FOR 1 HR): 5%, 11%, -120%, p<0.05 | tumour outcome (control, treated, inhibition, significance) (1000 PPM IN DIET FOR DURATION OF STUDY BEGINNING CONCURRENTLY WITH CARCINOGEN TREATMENT (STUDY DURATION: 42 WK), Strain/Sex: RAINBOW TROUT/ MALE, Target Tissue: Type of Lesion: STOMACH: TUMOR, Dose [Carcinogen]: 750 PPM IN DIET FOR 7 WK): 85%, 78%, 8%, p<0.05 | tumour outcome (control, treated, inhibition, significance) (1000 PPM IN DIET FOR DURATION OF STUDY BEGINNING CONCURRENTLY WITH CARCINOGEN TREATMENT (STUDY DURATION: 42 WK), Strain/Sex: RAINBOW TROUT/ MALE, Target Tissue: Type of Lesion: SWIM BLADDER: TUMOR, Dose [Carcinogen]: 750 PPM IN DIET FOR 7 WK): 1%, 1%, 0%, not significant | tumour outcome (control, treated, inhibition, significance) (1000 PPM IN DIET FROM 3 WK PRIOR TO CARCINOGEN TREATMENT TO 3 D POST CARCINOGEN TREATMENT (STUDY DURATION: 42 WK), Strain/Sex: RAINBOW TROUT/MALE, Target Tissue: Type of Lesion: LIVER: TUMOR, Dose [Carcinogen]: 4.16 PPM IN WATER FOR 1 HR): 7%, 16%, -129%, p<0.001 | tumour outcome (control, treated, inhibition, significance) (1000 PPM IN DIET FROM 3 WK PRIOR TO CARCINOGEN TREATMENT TO 3D POST CARCINOGEN TREATMENT (STUDY DURATION: 42 WK), Strain/Sex: RAINBOW TROUT/MALE, Target Tissue: Type of Lesion: STOMACH: TUMOR, Dose [Carcinogen]: 4.16 PPM IN WATER FOR 1 HR): 97%, 92%, 5%, not significant | tumour outcome (control, treated, inhibition, significance) (1000 PPM IN DIET FROM 3 WK PRIOR TO CARCINOGEN TREATMENT TO 3 D POST CARCINOGEN TREATMENT (STUDY DURATION: 42 WK), Strain/Sex: RAINBOW TROUT/MALE, Target Tissue: Type of Lesion: SWIM BLADDER: TUMOR, Dose [Carcinogen]: 4.16 PPM IN WATER FOR 1 HR): 14%, 50%, -257%, p<0.001 | tumour outcome (control, treated, inhibition, significance) (2000 PPM IN DIET FOR 17 WK BEGINNING POST CARCINOGEN TREATMENT (STUDY DURATION: 42 WK), Strain/Sex: RAINBOW TROUT/ MALE, Target Tissue: Type of Lesion: STOMACH: TUMOR, Dose [Carcinogen]: 5.5 PPM IN WATER FOR 1 HR): 88%, 19%, 78%, p<0.001 | tumour outcome (control, treated, inhibition, significance) (2000 PPM IN DIET FOR 17 WK BEGINNING POST CARCINOGEN TREATMENT (STUDY DURATION: 42 WK), Strain/Sex: RAINBOW TROUT/ MALE, Target Tissue: Type of Lesion: SWIM BLADDER: TUMOR, Dose [Carcinogen]: 5.5 PPM IN WATER FOR 1 HR): 15%, 6%, 60%, p<0.05 | tumour outcome (control, treated, inhibition, significance) (2000 PPM IN DIET FOR 17 WK BEGINNING POST CARCINOGEN TREATMENT (STUDY DURATION: 42 WK), Strain/Sex: RAINBOW TROUT/MALE, Target Tissue: Type of Lesion: LIVER: TUMOR, Dose [Carcinogen]: 5.5 PPM IN WATER FOR 1 HR): 5%, 10%, -100%, p<0.05 | tumour outcome (control, treated, inhibition, significance) (2000 PPM IN DIET FROM 1 WK PRIOR TO CARCINOGEN TREATMENT TO 3 D POST CARCINOGEN (STUDY DURATION: 42 WK), Strain/Sex: RAINBOW TROUT/ MALE, Target Tissue: Type of Lesion: SWIM-BLADDER: TUMOR, Dose [Carcinogen]: 5.5 PPM IN WATER FOR 1 HR): 15%, 7%, 53%, p<0.05 | tumour outcome (control, treated, inhibition, significance) (2000 PPM IN DIET FROM 1 WK PRIOR TO CARCINOGEN TREATMENT TO 3 D POST CARCINOGEN TREATMENT (STUDY DURATION: 42 WK), Strain/Sex: RAINBOW TROUT/ MALE, Target Tissue: Type of Lesion: LIVER: TUMOR, Dose [Carcinogen]: 5.5 PPM IN WATER FOR 1 HR): 5%, 3%, 40%, not significant
